# US6737383B1, “Herbicidal oxadiazolidines” (priority 1999, dated 2004)
# Assays:
# rape = assay: Test B pre/postemergence rape; type: in vivo, Brassica napus
# Summary of the method: (§1)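 Response is a visual 0-to-10 score relative to untreated plants, where 0 means no effect and 10 means complete control, taken twelve to sixteen days after application. Treatments went onto soil at planting and onto foliage of 1- to 4-leaf plants, using a surfactant-containing non-phytotoxic solvent.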
# morningglory = assay: Test B pre/postemergence morningglory; type: in vivo, Ipomoea hederacea
# Summary of the method: as §1
# surinam grass = assay: Test B pre/postemergence surinam grass; type: in vivo, Brachiaria decumbens
# Summary of the method: as §1
# velvetleaf = assay: Test B pre/postemergence velvetleaf; type: in vivo, Abutilon theophrasti
# Summary of the method: as §1
# crabgrass = assay: Test B pre/postemergence crabgrass; type: in vivo, Digitaria sanguinalis
# Summary of the method: as §1
# soybean = assay: Test B pre/postemergence soybean; type: in vivo, Glycine max
# Summary of the method: as §1
# blackgrass = assay: Test B pre/postemergence blackgrass; type: in vivo, Alopecurus myosuroides
# Summary of the method: as §1
# pigweed = assay: Test B pre/postemergence pigweed; type: in vivo, Amaranthus retroflexus
# Summary of the method: as §1
# purple nutsedge = assay: Test B pre/postemergence purple nutsedge; type: in vivo, Cyperus rotundus
# Summary of the method: as §1
# giant foxtail = assay: Test B pre/postemergence giant foxtail; type: in vivo, Setaria faberii
# Summary of the method: as §1
# bedstraw = assay: Test B pre/postemergence bedstraw; type: in vivo, Galium aparine
# Summary of the method: as §1
# cocklebur = assay: Test B pre/postemergence cocklebur; type: in vivo, Xanthium strumarium
# Summary of the method: as §1
# wild oat = assay: Test B pre/postemergence wild oat; type: in vivo, Avena fatua
# Summary of the method: as §1
# wheat = assay: Test B pre/postemergence wheat; type: in vivo, Triticum aestivum
# Summary of the method: as §1
# corn = assay: Test B pre/postemergence corn; type: in vivo, Zea mays
# Summary of the method: as §1
# [1] = Preemergence, Rate 62 g/ha, scale of 0 to 10 where 0 is no effect and 10 is complete control
# [2] = Preemergence, Rate 250 g/ha, scale of 0 to 10 where 0 is no effect and 10 is complete control
# [3] = Preemergence, Rate 500 g/ha, scale of 0 to 10 where 0 is no effect and 10 is complete control
# [4] = Rate 62 g/ha, Postemergence, scale 0 to 10 (0 no effect, 10 complete control)
# [5] = Rate 125 g/ha, Postemergence, scale of 0 to 10 where 0 is no effect and 10 is complete control
# [6] = Rate 250 g/ha, Postemergence, scale of 0 to 10 where 0 is no effect and 10 is complete control
# [7] = Rate 500 g/ha, Postemergence, scale 0 to 10, 0 no effect, 10 complete control
structure (smiles),measurement,setting,value
C=CCn1c(=O)on(C(=O)N(c2ccc(Cl)cc2)C(C)C2CC2)c1=O (stereo not drawn) [Compound 325],Rape plant response rating,rape; [1],0
same,Rape plant response rating (0 to 10 scale),"rape; Preemergence, Rate 125 g/ha",0
same,Rape plant response rating,rape; [2],0
same,Rape plant response rating,rape; [3],0
same,Rape plant response rating,rape; [4],0
same,Rape plant response rating,rape; [5],0
same,"Plant response rating, Rape",rape; [6],0
same,"Plant response rating, Rape",rape; [7],2
same,Morningglory plant response rating,morningglory; [1],0
same,Morningglory plant response rating (0 to 10 scale),"morningglory; Preemergence, Rate 125 g/ha",0
same,Morningglory plant response rating,morningglory; [2],0
same,Morningglory plant response rating,morningglory; [3],0
same,Morningglory plant response rating,morningglory; [4],4
same,Morningglory plant response rating,morningglory; [5],6
same,"Plant response rating, Morningglory",morningglory; [6],8
same,"Plant response rating, Morningglory",morningglory; [7],8
same,B. signalgrass plant response rating,surinam grass; [1],0
same,"B. signalgrass plant response rating (0 to 10 scale, 0 is no effect, 10 is complete control)","surinam grass; Preemergence, Rate 125 g/ha",0
same,B. signalgrass plant response rating,surinam grass; [2],0
same,B. signalgrass plant response rating,surinam grass; [3],0
same,B. signalgrass plant response rating,surinam grass; [4],0
same,B. signalgrass plant response rating,surinam grass; [5],0
same,"Plant response rating, B. signalgrass",surinam grass; [6],0
same,"Plant response rating, B. signalgrass",surinam grass; [7],2
same,Velvetleaf plant response rating,velvetleaf; [1],0
same,Velvetleaf plant response rating (0 to 10 scale),"velvetleaf; Preemergence, Rate 125 g/ha",0
same,Velvetleaf plant response rating,velvetleaf; [2],0
same,Velvetleaf plant response rating,velvetleaf; [3],0
same,Velvetleaf plant response rating,velvetleaf; [4],0
same,Velvetleaf plant response rating,velvetleaf; [5],0
same,"Plant response rating, Velvetleaf",velvetleaf; [6],0
same,"Plant response rating, Velvetleaf",velvetleaf; [7],2
same,Crabgrass plant response rating,crabgrass; [1],0
same,Crabgrass plant response rating (0 to 10 scale),"crabgrass; Preemergence, Rate 125 g/ha",0
same,Crabgrass plant response rating,crabgrass; [2],1
same,Crabgrass plant response rating,crabgrass; [3],2
same,Crabgrass plant response rating,crabgrass; [4],0
same,Crabgrass plant response rating,crabgrass; [5],0
same,"Plant response rating, Crabgrass",crabgrass; [6],0
same,"Plant response rating, Crabgrass",crabgrass; [7],0
same,Soybean plant response rating,soybean; [1],0
same,Soybean plant response rating (0 to 10 scale),"soybean; Preemergence, Rate 125 g/ha",0
same,Soybean plant response rating,soybean; [2],0
same,Soybean plant response rating,soybean; [3],0
same,Soybean plant response rating,soybean; [4],2
same,Soybean plant response rating,soybean; [5],2
same,"Plant response rating, Soybean",soybean; [6],1
same,"Plant response rating, Soybean",soybean; [7],3
same,Blackgrass plant response rating,blackgrass; [1],0
same,Blackgrass plant response rating (0 to 10 scale),"blackgrass; Preemergence, Rate 125 g/ha",1
same,Blackgrass plant response rating,blackgrass; [2],2
same,Blackgrass plant response rating,blackgrass; [3],7
same,Blackgrass plant response rating,blackgrass; [4],0
same,Blackgrass plant response rating,blackgrass; [5],0
same,"Plant response rating, Blackgrass",blackgrass; [6],3
same,"Plant response rating, Blackgrass",blackgrass; [7],7
same,Redroot pigweed plant response rating,pigweed; [1],0
same,Redroot pigweed plant response rating (0 to 10 scale),"pigweed; Preemergence, Rate 125 g/ha",0
same,Redroot pigweed plant response rating,pigweed; [2],0
same,Redroot pigweed plant response rating,pigweed; [3],0
same,Redroot pigweed plant response rating,pigweed; [4],0
same,Redroot pigweed plant response rating,pigweed; [5],0
same,"Plant response rating, Redroot pigweed",pigweed; [6],4
same,"Plant response rating, Redroot pigweed",pigweed; [7],7
same,Nutsedge plant response rating,purple nutsedge; [1],0
same,Nutsedge plant response rating (0 to 10 scale),"purple nutsedge; Preemergence, Rate 125 g/ha",0
same,Nutsedge plant response rating,purple nutsedge; [2],0
same,Nutsedge plant response rating,purple nutsedge; [4],0
same,Nutsedge plant response rating,purple nutsedge; [5],0
same,"Plant response rating, Nutsedge",purple nutsedge; [6],0
same,"Plant response rating, Nutsedge",purple nutsedge; [7],0
same,Giant foxtail plant response rating,giant foxtail; [1],3
same,Giant foxtail plant response rating (0 to 10 scale),"giant foxtail; Preemergence, Rate 125 g/ha",7
same,Giant foxtail plant response rating,giant foxtail; [2],8
same,Giant foxtail plant response rating,giant foxtail; [3],10
same,Giant foxtail plant response rating,giant foxtail; [4],0
same,Giant foxtail plant response rating,giant foxtail; [5],0
same,"Plant response rating, Giant foxtail",giant foxtail; [6],0
same,"Plant response rating, Giant foxtail",giant foxtail; [7],0
same,Bedstraw plant response rating,bedstraw; [1],0
same,Bedstraw plant response rating (0 to 10 scale),"bedstraw; Preemergence, Rate 125 g/ha",0
same,Bedstraw plant response rating,bedstraw; [2],0
same,Bedstraw plant response rating,bedstraw; [3],0
same,Bedstraw plant response rating,bedstraw; [4],2
same,Bedstraw plant response rating,bedstraw; [5],8
same,Cocklebur plant response rating,cocklebur; [1],0
same,Cocklebur plant response rating (0 to 10 scale),"cocklebur; Preemergence, Rate 125 g/ha",0
same,Cocklebur plant response rating,cocklebur; [2],0
same,Cocklebur plant response rating,cocklebur; [3],0
same,Cocklebur plant response rating,cocklebur; [4],0
same,Cocklebur plant response rating,cocklebur; [5],0
same,"Plant response rating, Cocklebur",cocklebur; [6],0
same,"Plant response rating, Cocklebur",cocklebur; [7],3
same,Wild oats plant response rating,wild oat; [1],0
same,Wild oats plant response rating (0 to 10 scale),"wild oat; Preemergence, Rate 125 g/ha",0
same,Wild oats plant response rating,wild oat; [2],0
same,Wild oats plant response rating,wild oat; [3],2
same,Wild oats plant response rating,wild oat; [4],0
same,Wild oats plant response rating,wild oat; [5],0
same,"Plant response rating, Wild oats",wild oat; [6],0
same,"Plant response rating, Wild oats",wild oat; [7],4
same,Wheat plant response rating,wheat; [1],0
same,Wheat plant response rating (0 to 10 scale),"wheat; Preemergence, Rate 125 g/ha",0
same,Wheat plant response rating,wheat; [2],0
same,Wheat plant response rating,wheat; [3],0
same,Wheat plant response rating,wheat; [4],0
same,Wheat plant response rating,wheat; [5],0
same,"Plant response rating, Wheat",wheat; [6],2
same,"Plant response rating, Wheat",wheat; [7],5
same,Corn plant response rating,corn; [1],0
same,Corn plant response rating (0 to 10 scale),"corn; Preemergence, Rate 125 g/ha",0
same,Corn plant response rating,corn; [2],0
same,Corn plant response rating,corn; [3],0
same,Corn plant response rating,corn; [4],0
same,Corn plant response rating,corn; [5],0
same,"Plant response rating, Corn",corn; [6],0
same,"Plant response rating, Corn",corn; [7],0
